Results from PMC10382584, “Macrocyclization of linear molecules by deep learning to facilitate macrocyclic drug candidates discovery” (Nature Communications, 2023).

Experiments:
Experiment in all cases: biochemical
Set-up in all cases: DiscoveRx KINOMEscan competition binding, percent of DMSO control signal at 100 nM
Details in all cases: read-out: Fig. 4a / Percent Control / Compound 1; percent of DMSO control, competition binding
CDK4 = CDK4 (Homo sapiens, UniProt P11802)
Description: (§1) The kinase selectivity profile was performed by using the DiscoveRx KINOMEscan platform. […] Test compounds were prepared as 40× stocks in 100% DMSO and directly diluted into the assay. The results were defined as a percentage of signal between the negative (DMSO, 100% control) and the positive (control compound, 0% control) control, which was calculated as follows: percent control = [(test compound signal − positive control signal)/(negative control signal − positive control signal)] × 100.

DRAK2 = biological target: T1, DRAK2 (Homo sapiens, UniProt O94768)
T1 construct: gene STK17B
Description: as §1

DYRK1A = DYRK1A (Homo sapiens, UniProt Q13627)
Description: as §1

DYRK2 = DYRK2 (Homo sapiens, UniProt Q92630)
Description: as §1

ERK2 = biological target: T2, ERK2 (Homo sapiens, UniProt P28482)
T2 construct: gene MAPK1
Description: as §1

ERK8 = biological target: T3, ERK8 (Homo sapiens, UniProt Q8TD08)
T3 construct: gene MAPK15
Description: as §1

FAK = biological target: T4, FAK (Homo sapiens, UniProt Q05397)
T4 construct: gene PTK2
Description: as §1

GRK7 = GRK7 (Homo sapiens, UniProt Q8WTQ7)
Description: as §1

HPK1 = biological target: T5, HPK1 (Homo sapiens, UniProt Q92918)
T5 construct: gene MAP4K1
Description: as §1

ICK = biological target: T6, ICK (Homo sapiens, UniProt Q9UPZ9)
T6 construct: gene CILK1
Description: as §1

MAK = MAK (Homo sapiens, UniProt P20794)
Description: as §1

NEK2 = NEK2 (Homo sapiens, UniProt P51955)
Description: as §1

NLK = NLK (Homo sapiens, UniProt Q9UBE8)
Description: as §1

PCTK2 = biological target: T7, PCTK2 (Homo sapiens, UniProt Q00537)
T7 construct: gene CDK17
Description: as §1

PDGFRB = PDGFRB (Homo sapiens, UniProt P09619)
Description: as §1

PDPK1 = PDPK1 (Homo sapiens, UniProt O15530)
Description: as §1

PFTK1 = biological target: T8, PFTK1 (Homo sapiens, UniProt O94921)
T8 construct: gene CDK14
Description: as §1

ROS1 = ROS1 (Homo sapiens, UniProt P08922)
Description: as §1

SBK1 = SBK1 (Homo sapiens, UniProt Q52WX2)
Description: as §1

TAK1 = biological target: T9, TAK1 (Homo sapiens, UniProt O43318)
T9 construct: gene MAP3K7
Description: as §1

TBK1 = TBK1 (Homo sapiens, UniProt Q9UHD2)
Description: as §1

TNNI3K = TNNI3K (Homo sapiens, UniProt Q59H18)
Description: as §1

TTK = TTK (Homo sapiens, UniProt P33981)
Description: as §1

WNK2 = WNK2 (Homo sapiens, UniProt Q9Y3S1)
Description: as §1

p38-delta = biological target: T10, p38-delta (Homo sapiens, UniProt O15264)
T10 construct: gene MAPK13
Description: as §1
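Note: KINOMEscan kinase panel binding assay, signal normalized between DMSO as 100% and a positive control compound as 0%.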

PDGFRB, sequence (P09619 whole entry): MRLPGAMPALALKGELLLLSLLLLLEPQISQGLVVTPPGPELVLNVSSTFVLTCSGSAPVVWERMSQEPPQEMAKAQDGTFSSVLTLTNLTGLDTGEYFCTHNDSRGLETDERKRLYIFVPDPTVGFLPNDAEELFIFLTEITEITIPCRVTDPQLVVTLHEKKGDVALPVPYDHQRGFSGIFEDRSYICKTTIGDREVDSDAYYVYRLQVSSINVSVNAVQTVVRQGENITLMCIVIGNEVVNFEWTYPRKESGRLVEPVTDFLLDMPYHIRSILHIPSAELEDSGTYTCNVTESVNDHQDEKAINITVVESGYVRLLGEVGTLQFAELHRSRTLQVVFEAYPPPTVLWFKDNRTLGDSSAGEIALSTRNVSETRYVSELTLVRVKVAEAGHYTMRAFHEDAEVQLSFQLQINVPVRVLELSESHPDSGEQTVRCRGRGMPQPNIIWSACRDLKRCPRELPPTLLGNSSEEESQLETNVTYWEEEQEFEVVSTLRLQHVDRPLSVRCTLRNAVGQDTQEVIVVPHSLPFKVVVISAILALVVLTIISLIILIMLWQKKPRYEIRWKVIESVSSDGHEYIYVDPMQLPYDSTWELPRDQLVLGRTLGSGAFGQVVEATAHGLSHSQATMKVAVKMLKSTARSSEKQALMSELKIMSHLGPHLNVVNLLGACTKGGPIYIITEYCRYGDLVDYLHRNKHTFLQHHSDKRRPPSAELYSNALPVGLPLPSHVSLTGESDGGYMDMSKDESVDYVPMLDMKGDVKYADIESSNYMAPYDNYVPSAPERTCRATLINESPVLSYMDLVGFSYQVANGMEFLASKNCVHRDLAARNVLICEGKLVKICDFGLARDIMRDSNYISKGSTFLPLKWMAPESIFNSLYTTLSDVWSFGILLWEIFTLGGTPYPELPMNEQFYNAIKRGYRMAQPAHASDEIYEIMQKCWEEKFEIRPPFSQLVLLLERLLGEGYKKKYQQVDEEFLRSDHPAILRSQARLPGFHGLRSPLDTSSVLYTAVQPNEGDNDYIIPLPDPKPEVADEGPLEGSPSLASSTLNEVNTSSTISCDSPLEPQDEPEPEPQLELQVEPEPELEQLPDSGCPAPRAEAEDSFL
T5 sequence (Q92918 whole entry): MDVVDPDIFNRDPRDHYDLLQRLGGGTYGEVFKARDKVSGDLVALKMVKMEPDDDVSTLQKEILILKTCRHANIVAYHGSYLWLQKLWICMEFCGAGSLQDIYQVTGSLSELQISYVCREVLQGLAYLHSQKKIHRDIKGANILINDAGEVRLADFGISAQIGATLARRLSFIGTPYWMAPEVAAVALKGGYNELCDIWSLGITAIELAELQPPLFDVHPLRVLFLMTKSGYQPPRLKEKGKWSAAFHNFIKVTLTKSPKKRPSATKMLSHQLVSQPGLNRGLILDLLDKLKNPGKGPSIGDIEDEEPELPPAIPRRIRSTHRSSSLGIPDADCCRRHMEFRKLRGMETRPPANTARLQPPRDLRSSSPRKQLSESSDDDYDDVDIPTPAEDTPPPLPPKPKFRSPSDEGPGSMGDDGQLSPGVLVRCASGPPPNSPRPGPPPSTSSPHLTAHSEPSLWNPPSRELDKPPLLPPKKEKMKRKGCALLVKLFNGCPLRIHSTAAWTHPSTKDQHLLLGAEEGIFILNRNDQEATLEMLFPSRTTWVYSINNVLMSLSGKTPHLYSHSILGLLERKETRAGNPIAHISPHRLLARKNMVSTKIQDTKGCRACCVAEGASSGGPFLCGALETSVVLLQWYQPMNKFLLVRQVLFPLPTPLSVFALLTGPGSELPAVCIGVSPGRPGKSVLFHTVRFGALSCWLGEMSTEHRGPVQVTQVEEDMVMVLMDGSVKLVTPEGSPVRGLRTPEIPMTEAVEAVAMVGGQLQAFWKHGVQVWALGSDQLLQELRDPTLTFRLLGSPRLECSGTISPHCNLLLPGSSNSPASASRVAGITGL
T6 sequence (Q9UPZ9 whole entry): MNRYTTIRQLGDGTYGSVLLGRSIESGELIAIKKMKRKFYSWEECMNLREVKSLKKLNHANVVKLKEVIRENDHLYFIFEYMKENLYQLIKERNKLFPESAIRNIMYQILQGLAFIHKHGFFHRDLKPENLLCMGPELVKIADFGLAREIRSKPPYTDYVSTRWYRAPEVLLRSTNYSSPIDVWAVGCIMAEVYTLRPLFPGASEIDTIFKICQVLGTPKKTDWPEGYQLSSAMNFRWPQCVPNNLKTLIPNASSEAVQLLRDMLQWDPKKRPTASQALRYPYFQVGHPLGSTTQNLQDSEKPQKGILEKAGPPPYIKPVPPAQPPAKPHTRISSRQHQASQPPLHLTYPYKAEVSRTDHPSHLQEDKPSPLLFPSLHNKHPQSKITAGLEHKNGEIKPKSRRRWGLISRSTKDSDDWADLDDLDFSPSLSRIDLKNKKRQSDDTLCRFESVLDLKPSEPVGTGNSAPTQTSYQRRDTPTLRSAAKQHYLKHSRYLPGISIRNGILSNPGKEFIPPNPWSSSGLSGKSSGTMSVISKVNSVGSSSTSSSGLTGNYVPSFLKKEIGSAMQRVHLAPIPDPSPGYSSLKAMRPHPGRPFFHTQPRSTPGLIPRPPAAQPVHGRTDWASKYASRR
ROS1, sequence (P08922 whole entry): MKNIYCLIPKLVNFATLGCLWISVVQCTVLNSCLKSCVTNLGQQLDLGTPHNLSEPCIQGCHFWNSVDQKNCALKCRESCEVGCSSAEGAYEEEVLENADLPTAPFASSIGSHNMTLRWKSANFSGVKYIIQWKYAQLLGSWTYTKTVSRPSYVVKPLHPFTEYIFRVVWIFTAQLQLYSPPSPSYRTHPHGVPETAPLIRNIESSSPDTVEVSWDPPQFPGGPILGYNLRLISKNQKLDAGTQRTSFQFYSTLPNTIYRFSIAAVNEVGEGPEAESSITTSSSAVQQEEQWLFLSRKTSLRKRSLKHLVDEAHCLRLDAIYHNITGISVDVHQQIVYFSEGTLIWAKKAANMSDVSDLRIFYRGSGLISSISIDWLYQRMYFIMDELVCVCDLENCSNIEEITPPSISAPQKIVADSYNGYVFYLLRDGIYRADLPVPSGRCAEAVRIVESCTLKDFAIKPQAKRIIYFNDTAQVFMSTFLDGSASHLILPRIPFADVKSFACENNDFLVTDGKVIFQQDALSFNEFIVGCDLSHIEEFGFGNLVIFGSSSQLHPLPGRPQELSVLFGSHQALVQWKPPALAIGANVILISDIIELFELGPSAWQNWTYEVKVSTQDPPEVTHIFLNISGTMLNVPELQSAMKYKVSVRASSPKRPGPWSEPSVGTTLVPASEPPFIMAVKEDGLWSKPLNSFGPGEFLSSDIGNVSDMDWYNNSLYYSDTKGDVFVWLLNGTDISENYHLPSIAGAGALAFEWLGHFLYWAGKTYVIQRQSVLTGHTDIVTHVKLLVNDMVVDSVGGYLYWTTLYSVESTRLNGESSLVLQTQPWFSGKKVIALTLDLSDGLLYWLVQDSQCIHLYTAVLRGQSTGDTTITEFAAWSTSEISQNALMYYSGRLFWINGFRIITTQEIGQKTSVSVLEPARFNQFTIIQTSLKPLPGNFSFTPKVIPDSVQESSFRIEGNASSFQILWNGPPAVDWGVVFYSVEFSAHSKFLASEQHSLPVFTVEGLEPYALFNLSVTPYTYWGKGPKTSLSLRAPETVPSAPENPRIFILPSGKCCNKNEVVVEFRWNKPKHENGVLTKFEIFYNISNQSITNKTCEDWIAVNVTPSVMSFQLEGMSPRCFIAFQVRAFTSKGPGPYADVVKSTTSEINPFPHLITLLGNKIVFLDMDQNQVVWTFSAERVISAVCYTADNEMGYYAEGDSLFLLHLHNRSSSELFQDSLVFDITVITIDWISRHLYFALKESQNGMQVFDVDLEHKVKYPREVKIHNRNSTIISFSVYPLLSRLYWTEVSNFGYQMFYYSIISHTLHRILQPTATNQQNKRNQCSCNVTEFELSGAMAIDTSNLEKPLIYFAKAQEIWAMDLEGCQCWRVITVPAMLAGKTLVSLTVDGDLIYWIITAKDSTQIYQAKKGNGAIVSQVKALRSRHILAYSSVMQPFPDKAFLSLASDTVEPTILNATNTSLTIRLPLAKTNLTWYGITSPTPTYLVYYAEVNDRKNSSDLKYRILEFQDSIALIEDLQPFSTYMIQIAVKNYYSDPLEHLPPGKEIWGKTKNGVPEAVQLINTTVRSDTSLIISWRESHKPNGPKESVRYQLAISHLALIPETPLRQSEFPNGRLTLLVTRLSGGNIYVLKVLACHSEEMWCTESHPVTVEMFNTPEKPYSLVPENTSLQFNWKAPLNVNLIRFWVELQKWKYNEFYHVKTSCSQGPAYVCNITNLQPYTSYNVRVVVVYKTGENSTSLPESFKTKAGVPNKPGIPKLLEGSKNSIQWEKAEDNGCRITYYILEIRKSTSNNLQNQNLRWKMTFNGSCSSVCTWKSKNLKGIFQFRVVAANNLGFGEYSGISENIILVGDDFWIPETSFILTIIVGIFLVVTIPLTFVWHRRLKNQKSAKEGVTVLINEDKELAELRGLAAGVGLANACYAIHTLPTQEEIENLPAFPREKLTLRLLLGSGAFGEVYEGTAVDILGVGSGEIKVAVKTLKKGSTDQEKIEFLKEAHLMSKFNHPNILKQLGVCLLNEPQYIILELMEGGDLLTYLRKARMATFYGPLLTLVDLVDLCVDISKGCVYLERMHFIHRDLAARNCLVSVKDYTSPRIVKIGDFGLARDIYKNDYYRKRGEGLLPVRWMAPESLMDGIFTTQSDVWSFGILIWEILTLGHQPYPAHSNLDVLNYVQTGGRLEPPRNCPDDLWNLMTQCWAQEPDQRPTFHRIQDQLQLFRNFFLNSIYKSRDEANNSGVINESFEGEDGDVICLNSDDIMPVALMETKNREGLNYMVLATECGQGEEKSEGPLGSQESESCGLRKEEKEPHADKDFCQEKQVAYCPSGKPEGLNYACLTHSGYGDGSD

Cc1cnc2nc1Nc1cccc(c1)COCc1cc(ccc1OCCN1CCCC1)N2 [Compound 1]
remaining binding at 0.1 µM (CDK4): 96% | remaining binding at 0.1 µM (DRAK2): 100% | remaining binding at 0.1 µM (DYRK1A): 88% | remaining binding at 0.1 µM (DYRK2): 90% | remaining binding at 0.1 µM (ERK2): 100% | remaining binding at 0.1 µM (ERK8): 99% | remaining binding at 0.1 µM (FAK): 95% | remaining binding at 0.1 µM (GRK7): 93% | remaining binding at 0.1 µM (HPK1): 72% | remaining binding at 0.1 µM (ICK): 80% | remaining binding at 0.1 µM (MAK): 100% | remaining binding at 0.1 µM (NEK2): 83% | remaining binding at 0.1 µM (NLK): 95% | remaining binding at 0.1 µM (PCTK2): 98% | remaining binding at 0.1 µM (PDGFRB): 51% | remaining binding at 0.1 µM (PDPK1): 98% | remaining binding at 0.1 µM (PFTK1): 84% | remaining binding at 0.1 µM (ROS1): 76% | remaining binding at 0.1 µM (SBK1): 57% | remaining binding at 0.1 µM (TAK1): 67% | remaining binding at 0.1 µM (TBK1): 76% | remaining binding at 0.1 µM (TNNI3K): 100% | remaining binding at 0.1 µM (TTK): 95% | remaining binding at 0.1 µM (WNK2): 100% | remaining binding at 0.1 µM (p38-delta): 100%
